# From US20020098509A1, “Method for the quantitative determination of reversible acting inhibitors of the oxidoreductases” (priority 1995, published 2002)
# Read-outs that look alike come from different tables or passages of the source.
# Columns and labels:
# sarcosine oxidase [1] = test: Stirred vessel system, initial gradient of oxygen or hydrogen peroxide signal; assay type: biochemical; settings: for effect of substrate concentration on inhibition of the sarcosine oxidase, FIG. 16: 0.1 g/l sarcosine compared to 1.0 g/l sarcosine
# Source text: In contrast to the FIA system the stirred vessel system is a discontinuous process. In order to perform a measurement all necessary reaction partners are brought into the reaction chamber of the stirred vessel system and the course of reaction is been monitored by the appropriate detectors during a fixed time period. Afterwards the whole reaction mixture is removed. Then a new measurement can be done.
# The reaction mixture of the stirred vessel system in FIG. 11 consists of the sample, substrate, buffer solution and enzyme. Here, the sample and the enzyme are added one after another and the sample itself containing the analyte, acetic acid for instance, in different concentrations. […] The result of the measurement is calculated from the initial gradient of the signal.
# During the calibration via the initial gradient samples of different analyte concentration are added and the relating initial inclines are drawn into the chart in dependence of the analyte concentration (see FIGS. 12, 13 and 14). The sample containing the unknown analyte concentration is added to the reaction mixture in the same manner and is determined by using the initial incline which is compared to the calibration curve.
# sarcosine oxidase [2] = settings: for inhibition of the sarcosine oxidase activity, FIG. 10: sarcosine oxidase 100 U
# Source text: In FIA systems an injected volume of the sample is transported to the detector by a continuous moving, not segmented carrier or transport flow via a mixing and reaction line. Meanwhile, the injected sample zone is broadened (dispersion) and reacts with the ingredients of the carrier flow. As a result of the chemical conversion, the changes in concentration of the participating components lead to a change of signal at the detector, which is characteristic for the concentration of the determined substance of the injected sample. In FIG. 1 the analyte (acetic acid) as well as the substrate (sarcosine) are injected as a sample into the carrier flow consisting of the working buffer. The mixing and reacting line contains the immobilized enzyme sarcosine oxidase, which reacts with the analyte and the substrate of the sample. The decrease of oxygen or the production of hydrogene peroxide is measured by means of an oxygen or hydrogene peroxide electrode. A typical measuring signal is reproduced in FIG. 2. The peak high H or surface S is proportional to the concentration of the sample. When calibrating via the peak heights, samples of different analyte concentrations are injected and the resulting peak heights in dependence of their analyte concentrations are drawn into a chart (FIG. 3). The sample of unknown analyte concentration is injected in the same manner and can be determined via the peak height with the help of the calibration curve. In FIG. 4 the substrate is added to the buffer solution and calibration is done by injecting the analyte. Again the analysis of the unknown sample can be be done by using the calibration curve as described in FIG. 5.
"effect of substrate concentration on inhibition of the sarcosine oxidase, FIG. 16 (sarcosine oxidase [1])","inhibition of the sarcosine oxidase activity, FIG. 10 (sarcosine oxidase [2]; 0.25 g/l respectively 0.5 g/l sarcosine)","inhibition of the sarcosine oxidase activity, FIG. 10 (sarcosine oxidase [2]; 1 g/l or 2 g/l sarcosine)","inhibitor strength (inhibition of the measuring system), FIG. 7 (sarcosine oxidase [2]; substances arising in biotechnological media, maximum concentration 0.1 mol/l)",SMILES,"amount of inhibition of the sarcosine oxidase (relative initial incline versus analyte concentration), FIG. 15 (sarcosine oxidase [1]; comparison of analytes, acetate and propionate as reference curves)"
substantial higher inhibition,a considerable amount of inhibition,only a small amount of inhibition,quite strong,CC(=O)O [acetate],–
substantial higher inhibition,–,–,–,CCC(=O)O [propionate],–

SMILES,"effect of substrate concentration on inhibition of the sarcosine oxidase, FIG. 16 (sarcosine oxidase [1])","inhibition of the sarcosine oxidase activity, FIG. 10 (sarcosine oxidase [2]; 0.25 g/l respectively 0.5 g/l sarcosine)","inhibition of the sarcosine oxidase activity, FIG. 10 (sarcosine oxidase [2]; 1 g/l or 2 g/l sarcosine)","inhibitor strength (inhibition of the measuring system), FIG. 7 (sarcosine oxidase [2]; substances arising in biotechnological media, maximum concentration 0.1 mol/l)","amount of inhibition of the sarcosine oxidase (relative initial incline versus analyte concentration), FIG. 15 (sarcosine oxidase [1]; comparison of analytes, acetate and propionate as reference curves)"
CC=O [acetaldehyde],only slightly influenced,–,–,–,lower
